In article PMC3637257, “A Novel Anti-Tumor Inhibitor Identified by Virtual Screen with PLK1 Structure and Zebrafish Assay” (PLoS ONE, 2013) one finds IC50 data, which are given here for 21 molecules.

In this assay the test system is PC-3. Briefly: cells. Particulars: Homo sapiens, PC-3, 72 h; read-out: IC50 inhibiting PC-3. Set-up: MTS cell viability / proliferation assay of PC-3 prostate cancer cells. As to the method: Fifteen human cancer cell lines were tested in our studies. Initial screens used human lung cancer cell A549, human epithelial cervical cancer Hela cells, human prostate cancer PC-3 cells, human epidermoid cancer KB-31 cells, human breast cancer MDA-MB-231 cells, and human pancreatic cancer HPAF. These cell lines were obtained commercially from ATCC. The first six cell cultures were maintained in 75 cm^2 cell culture flasks in which the cells were passaged at 70–80% confluence every 2–3 days. All cancer cells were cultured in RPMI 1640 containing 10% fetal calf serum, 100 U/mL penicillin, 100 µg/mL streptomycin, and 2 mM L-lutamine (complete RPMI medium). All cancer cells were plated at 1×10^4 cells per well in a 96 well plate. Drugs of different concentrations were then added. MTS assays (CellTiter 96® AQueous One Solution Cell Proliferation Assay, Promega) were performed after 72 h post treatment to determine the cell viability following drug administration.
With `COc1ccc2nc(SCC(=O)Nc3ccccc3OC)c(C#N)cc2c1` [5a], the IC50 was determined as 40 µM.

Turning to `COc1ccc2nc(SCC(=O)Nc3cc(Cl)ccc3OC)c(C#N)cc2c1` [5b], the IC50 was found to be 10 µM.

For the molecule `COc1ccc(OC)c(NC(=O)CSc2nc3ccc(OC)cc3cc2C#N)c1` [5c], the 50% inhibitory concentration (IC50) is 10 µM.

Take `COc1ccc2nc(SCC(=O)Nc3ccccc3Br)c(C#N)cc2c1` [5d]: the concentration for half-maximal inhibition (IC50) turned out to be 10 µM.

Turning to `COc1ccc2nc(SCC(=O)Nc3ccccc3Cl)c(C#N)cc2c1` [5e], the IC50 was 10 µM.

Take `COc1ccc2nc(SCC(=O)Nc3ccccn3)c(C#N)cc2c1` [5f]: the half-inhibitory concentration (IC50) was 10 µM.

`COc1ccc2nc(SCC(=O)Nc3ccc(Cl)cn3)c(C#N)cc2c1` [5g]: the half-maximal inhibitory concentration (IC50) turned out to be 10 µM.

Turning to `COc1ccc2nc(SCC(=O)Nc3cnccn3)c(C#N)cc2c1` [5h], the IC50 was 10 µM.

Turning to `COc1ccc2nc(SCC(=O)Nc3cc(C(F)(F)F)ccc3C(F)(F)F)c(C#N)cc2c1` [5i], the half-inhibitory concentration (IC50) is 20 µM.

As for `COc1ccc2nc(SCC(=O)Nc3nccs3)c(C#N)cc2c1` [5j], the IC50 was found to be 10 µM.

Consider `COc1ccc2nc(SCC(=O)Nc3ccccc3O)c(C#N)cc2c1` [5k], for which the half-maximal inhibitory concentration (IC50) worked out at 30 µM.

Regarding `COc1ccc2nc(SCC(=O)Nc3ccc(Cl)cc3Cl)c(C#N)cc2c1` [5l], the half-maximal inhibitory concentration (IC50) is 10 µM.

As to `CCc1cccc(CC)c1NC(=O)CSc1nc2ccc(OC)cc2cc1C#N` [5m], the IC50 is 20 µM.

Consider `COc1ccc2nc(SCC(=O)Nc3ccc(N(C)C)cc3)c(C#N)cc2c1` [5n], for which the IC50 is 10 µM.

As to `COc1ccc(C)cc1NC(=O)CSc1nc2ccc(Cl)cc2cc1C#N` [5o], the IC50 stood at 20 µM.

In the case of `N#Cc1cc2cc(Cl)ccc2nc1SCC(=O)Nc1ccccc1C(F)(F)F` [5p], the IC50 came out at 10 µM.

As to `COc1ccc(C)cc1NC(=O)CSc1nc2ccc(C)cc2cc1C#N` [5q], the IC50 worked out at 20 µM.

On to `Cc1ccc2nc(SCC(=O)Nc3ccccc3C(F)(F)F)c(C#N)cc2c1` [5r], for which the IC50 is 40 µM.

With `COc1ccc(C)cc1NC(=O)CSc1nc2ccc(Br)cc2cc1C#N` [5s], the half-maximal inhibitory concentration (IC50) was found to be 40 µM.

`N#Cc1cc2cc(Br)ccc2nc1SCC(=O)Nc1ccccc1C(F)(F)F` [5t]: the IC50 amounted to 50 µM.

Consider `COc1ccc2nc(SCC(=O)Nc3cc(C)ccc3OC)c(C#N)cc2c1` [I2], for which the half-inhibitory concentration (IC50) came out at 1 µM.

In general, IC50 refers to the concentration that inhibits the measured activity by half.
